Results on 17 compounds are retold here after patent US20250243171A1, “QUINAZOLINE COMPOUNDS FOR TREATMENT OF DISEASE” (Arthrosi Therapeutics, Inc., priority 2021, published 2025).

In general, EC50 refers to the concentration needed to bring the measured effect to its halfway point.

What all share (assay): EC50 assay: Ba/F3 stable cell proliferation (CCK-8, 72 h)
Holding throughout (assay type): cell-based

The target of experiment [1] is T1, Ba/F3 stable cells (Homo sapiens, UniProt P00533, T790M/L858R, cells depend on it).
T1 construct: EC50 Ba/F3-EGFR L858R-T790M; other: Ba/F3-EGFR L858R-T790M cells, 72 h, CCK-8
T1 sequence (P00533 whole entry T790M/L858R): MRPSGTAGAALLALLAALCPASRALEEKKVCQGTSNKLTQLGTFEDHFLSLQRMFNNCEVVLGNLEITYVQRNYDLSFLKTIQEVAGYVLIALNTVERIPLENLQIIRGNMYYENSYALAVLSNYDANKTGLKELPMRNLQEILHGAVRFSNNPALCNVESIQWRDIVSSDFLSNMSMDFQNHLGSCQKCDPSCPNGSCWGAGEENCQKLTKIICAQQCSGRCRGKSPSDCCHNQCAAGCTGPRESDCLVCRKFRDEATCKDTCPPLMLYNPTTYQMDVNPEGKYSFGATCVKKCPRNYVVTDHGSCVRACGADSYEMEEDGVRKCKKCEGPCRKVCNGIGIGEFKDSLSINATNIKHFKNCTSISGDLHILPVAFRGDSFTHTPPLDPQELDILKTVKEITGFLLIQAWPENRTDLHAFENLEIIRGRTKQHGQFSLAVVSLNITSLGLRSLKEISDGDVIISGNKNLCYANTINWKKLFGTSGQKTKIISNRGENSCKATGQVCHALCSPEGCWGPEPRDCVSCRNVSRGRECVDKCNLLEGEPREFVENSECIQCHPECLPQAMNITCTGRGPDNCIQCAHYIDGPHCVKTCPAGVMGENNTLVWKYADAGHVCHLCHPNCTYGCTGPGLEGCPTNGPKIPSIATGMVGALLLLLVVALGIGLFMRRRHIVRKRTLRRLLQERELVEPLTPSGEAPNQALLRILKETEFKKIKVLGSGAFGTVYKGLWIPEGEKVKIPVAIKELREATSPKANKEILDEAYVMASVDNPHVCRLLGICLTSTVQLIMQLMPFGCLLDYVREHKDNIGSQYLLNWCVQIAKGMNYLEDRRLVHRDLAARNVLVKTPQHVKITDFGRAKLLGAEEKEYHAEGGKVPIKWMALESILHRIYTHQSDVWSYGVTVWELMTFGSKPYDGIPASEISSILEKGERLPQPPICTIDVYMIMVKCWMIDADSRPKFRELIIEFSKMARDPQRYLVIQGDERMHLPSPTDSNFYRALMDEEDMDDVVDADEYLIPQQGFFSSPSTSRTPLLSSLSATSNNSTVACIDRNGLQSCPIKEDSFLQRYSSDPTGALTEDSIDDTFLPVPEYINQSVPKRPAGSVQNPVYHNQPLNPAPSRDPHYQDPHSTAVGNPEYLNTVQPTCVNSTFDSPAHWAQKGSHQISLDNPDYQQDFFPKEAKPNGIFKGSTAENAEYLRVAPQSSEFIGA
Particulars: Ba/F3-EGFR L858R-T790M cells. The method in brief: (§1)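 Ba/F3 stable cells were seeded at 4,000 cells/90 μL/well in 96-well plates and held 2 h at 37° C. in 5% CO2, then given 10 μL of serially titrated compound (0.1% DMSO final). After 72 h at 37° C., CCK-8 reagent was added for 4 hours and absorbance read at 450 nm to derive EC50.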

For experiment [2], the target named is T2, Ba/F3 stable cells (Homo sapiens, UniProt P00533, DUP768-770, cells depend on it).
T2 construct: EC50 Ba/F3-EGFR D770-N771insSVD; other: Ba/F3-EGFR D770-N771insSVD cells, 72 h, CCK-8
T2 sequence (P00533 with tags, fused parts or gaps DUP768-770): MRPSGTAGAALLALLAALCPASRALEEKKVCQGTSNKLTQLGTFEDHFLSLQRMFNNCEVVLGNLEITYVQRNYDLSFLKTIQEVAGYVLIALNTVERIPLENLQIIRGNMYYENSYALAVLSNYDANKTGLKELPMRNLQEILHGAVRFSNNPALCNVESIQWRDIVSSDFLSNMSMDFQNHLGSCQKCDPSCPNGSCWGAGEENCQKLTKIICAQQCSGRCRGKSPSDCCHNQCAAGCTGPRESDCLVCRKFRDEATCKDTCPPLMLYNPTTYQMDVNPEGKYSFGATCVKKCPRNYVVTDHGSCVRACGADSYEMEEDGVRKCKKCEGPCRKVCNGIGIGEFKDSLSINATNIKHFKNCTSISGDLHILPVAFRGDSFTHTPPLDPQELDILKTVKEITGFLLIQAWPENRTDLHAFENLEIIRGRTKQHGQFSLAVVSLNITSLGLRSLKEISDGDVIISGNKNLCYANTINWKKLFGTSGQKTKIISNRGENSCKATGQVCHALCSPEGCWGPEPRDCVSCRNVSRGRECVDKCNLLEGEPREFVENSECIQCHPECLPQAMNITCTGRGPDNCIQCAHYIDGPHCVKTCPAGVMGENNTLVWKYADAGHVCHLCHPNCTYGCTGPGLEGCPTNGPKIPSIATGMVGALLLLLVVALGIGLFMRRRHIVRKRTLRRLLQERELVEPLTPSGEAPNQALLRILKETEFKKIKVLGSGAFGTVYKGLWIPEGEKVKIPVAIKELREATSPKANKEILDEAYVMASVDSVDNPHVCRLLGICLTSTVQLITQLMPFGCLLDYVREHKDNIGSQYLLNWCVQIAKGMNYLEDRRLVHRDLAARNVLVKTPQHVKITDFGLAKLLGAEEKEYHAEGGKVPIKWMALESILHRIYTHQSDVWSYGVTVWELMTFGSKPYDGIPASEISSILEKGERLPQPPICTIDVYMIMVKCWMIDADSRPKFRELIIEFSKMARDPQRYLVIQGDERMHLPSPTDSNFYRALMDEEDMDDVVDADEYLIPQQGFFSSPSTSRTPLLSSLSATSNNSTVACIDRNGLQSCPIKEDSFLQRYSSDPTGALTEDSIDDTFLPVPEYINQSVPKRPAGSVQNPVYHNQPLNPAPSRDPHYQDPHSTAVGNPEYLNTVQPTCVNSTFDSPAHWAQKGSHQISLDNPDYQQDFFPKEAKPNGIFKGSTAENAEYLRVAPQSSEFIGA
Particulars: Ba/F3-EGFR D770-N771insSVD cells. Summed up: as §1

In experiment [3] the target is T3, Ba/F3 stable cells (Homo sapiens, UniProt P00533, DUP771-773, cells depend on it).
T3 construct: EC50 Ba/F3-EGFR H773-V774insNPH; other: Ba/F3-EGFR H773-V774insNPH cells, 72 h, CCK-8
Particulars: Ba/F3-EGFR H773-V774insNPH cells. The method in brief: as §1

The target of experiment [4] is T4, Ba/F3 stable cells (Homo sapiens, UniProt P00533, INS763FQEA, cells depend on it).
T4 construct: EC50 Ba/F3-EGFR A763-Y764insFQEA; other: Ba/F3-EGFR A763-Y764insFQEA cells, 72 h, CCK-8
Particulars: Ba/F3-EGFR A763-Y764insFQEA cells. Summed up: as §1

Experiment [5] addresses T5, Ba/F3 stable cells (Homo sapiens, UniProt P00533, DUP767-769, cells depend on it).
T5 construct: EC50 Ba/F3-EGFR V769-D770insASV; other: Ba/F3-EGFR V769-D770insASV cells, 72 h, CCK-8
Particulars: Ba/F3-EGFR V769-D770insASV cells. Summed up:
as §1

The target in experiment [6] is T6, Ba/F3 stable cells (Homo sapiens, UniProt P04626, DUP772-775, cells depend on it).
T6 construct: EC50 Ba/F3-HER2 A775-G776insYVMA; other: Ba/F3-HER2 A775-G776insYVMA cells, 72 h, CCK-8
T6 sequence (P04626 with tags, fused parts or gaps DUP772-775): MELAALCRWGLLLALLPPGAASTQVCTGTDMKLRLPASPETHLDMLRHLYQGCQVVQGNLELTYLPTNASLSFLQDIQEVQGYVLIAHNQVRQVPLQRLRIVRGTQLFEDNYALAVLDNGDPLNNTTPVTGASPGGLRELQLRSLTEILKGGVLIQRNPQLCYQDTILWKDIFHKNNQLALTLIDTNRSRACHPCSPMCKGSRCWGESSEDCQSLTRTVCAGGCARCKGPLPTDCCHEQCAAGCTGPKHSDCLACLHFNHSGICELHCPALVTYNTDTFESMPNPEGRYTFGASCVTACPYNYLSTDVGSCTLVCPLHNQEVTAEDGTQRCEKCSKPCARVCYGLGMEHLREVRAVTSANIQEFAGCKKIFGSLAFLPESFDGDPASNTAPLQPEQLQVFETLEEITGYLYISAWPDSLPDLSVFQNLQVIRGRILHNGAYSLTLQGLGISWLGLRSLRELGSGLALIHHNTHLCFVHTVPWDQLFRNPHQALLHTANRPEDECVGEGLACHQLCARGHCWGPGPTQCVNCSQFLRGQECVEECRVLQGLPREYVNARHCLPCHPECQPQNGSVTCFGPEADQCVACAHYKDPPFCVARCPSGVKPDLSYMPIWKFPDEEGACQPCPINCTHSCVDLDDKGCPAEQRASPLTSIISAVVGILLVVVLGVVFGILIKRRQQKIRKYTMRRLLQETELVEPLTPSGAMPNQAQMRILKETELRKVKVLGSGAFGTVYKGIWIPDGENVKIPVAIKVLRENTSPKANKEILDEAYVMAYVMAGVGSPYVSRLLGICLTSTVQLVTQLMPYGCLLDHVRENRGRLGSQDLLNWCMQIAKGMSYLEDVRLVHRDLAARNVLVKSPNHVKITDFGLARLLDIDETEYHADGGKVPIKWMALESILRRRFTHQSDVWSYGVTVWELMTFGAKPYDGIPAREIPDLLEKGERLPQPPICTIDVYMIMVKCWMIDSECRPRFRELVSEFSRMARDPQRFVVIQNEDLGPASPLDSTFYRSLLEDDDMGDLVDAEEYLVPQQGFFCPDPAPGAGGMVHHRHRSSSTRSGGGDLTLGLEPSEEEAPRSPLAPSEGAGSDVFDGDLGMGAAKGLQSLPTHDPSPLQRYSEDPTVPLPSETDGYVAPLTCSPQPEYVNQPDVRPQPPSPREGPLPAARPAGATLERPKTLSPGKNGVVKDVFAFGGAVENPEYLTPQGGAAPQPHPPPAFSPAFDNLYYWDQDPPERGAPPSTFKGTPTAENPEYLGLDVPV
Particulars: Ba/F3-HER2 A775-G776insYVMA cells. Summed up: as §1

T5 sequence (P00533 with tags, fused parts or gaps DUP767-769): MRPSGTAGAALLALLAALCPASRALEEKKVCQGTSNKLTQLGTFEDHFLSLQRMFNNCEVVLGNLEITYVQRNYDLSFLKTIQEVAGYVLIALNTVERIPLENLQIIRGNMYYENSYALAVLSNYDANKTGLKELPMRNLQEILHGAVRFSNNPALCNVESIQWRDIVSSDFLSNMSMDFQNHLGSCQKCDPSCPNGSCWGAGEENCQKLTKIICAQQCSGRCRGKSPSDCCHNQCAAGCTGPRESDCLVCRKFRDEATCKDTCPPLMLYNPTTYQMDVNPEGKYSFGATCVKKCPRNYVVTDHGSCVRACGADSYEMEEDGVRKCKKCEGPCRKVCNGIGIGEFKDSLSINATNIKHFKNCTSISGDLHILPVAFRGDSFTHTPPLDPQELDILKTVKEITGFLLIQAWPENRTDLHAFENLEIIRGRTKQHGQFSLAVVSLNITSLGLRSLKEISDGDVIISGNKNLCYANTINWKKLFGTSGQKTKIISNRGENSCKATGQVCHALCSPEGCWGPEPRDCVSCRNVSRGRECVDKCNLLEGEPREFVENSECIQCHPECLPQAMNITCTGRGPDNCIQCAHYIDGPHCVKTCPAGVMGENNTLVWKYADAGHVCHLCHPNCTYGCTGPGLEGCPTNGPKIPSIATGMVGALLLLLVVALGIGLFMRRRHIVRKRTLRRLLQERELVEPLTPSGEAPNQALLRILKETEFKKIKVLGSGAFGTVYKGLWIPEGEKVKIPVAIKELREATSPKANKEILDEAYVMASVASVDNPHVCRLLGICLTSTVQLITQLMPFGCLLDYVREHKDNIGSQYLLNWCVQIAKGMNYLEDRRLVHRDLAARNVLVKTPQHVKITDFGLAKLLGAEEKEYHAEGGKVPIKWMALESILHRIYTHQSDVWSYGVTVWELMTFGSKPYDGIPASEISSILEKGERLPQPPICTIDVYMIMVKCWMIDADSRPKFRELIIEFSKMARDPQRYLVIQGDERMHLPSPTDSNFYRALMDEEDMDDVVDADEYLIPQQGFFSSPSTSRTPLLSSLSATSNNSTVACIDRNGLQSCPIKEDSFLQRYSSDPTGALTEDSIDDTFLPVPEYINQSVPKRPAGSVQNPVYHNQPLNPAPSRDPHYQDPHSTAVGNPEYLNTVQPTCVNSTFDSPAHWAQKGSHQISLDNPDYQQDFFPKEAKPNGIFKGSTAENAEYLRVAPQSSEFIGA

As to `C=CC(=O)N[C@H]1C[C@H](Oc2cc3c(Nc4ccc(C#N)c(Cl)c4)ncnc3cc2OC)C1` [Compound 86, N-(3-((4-((3-chloro-4-cyanophenyl)amino)-7-methoxyquinazolin-6-yl)oxy)cyclobutyl)acrylamide], the EC50 at Ba/F3 stable cells [1] was over 1000 nM; at Ba/F3 stable cells [2] it was over 1000 nM; at Ba/F3 stable cells [3] it was over 1000 nM; at Ba/F3 stable cells [4], 200 to 1000 nM; on Ba/F3 stable cells [5], over 1000 nM; on Ba/F3 stable cells [6], over 1000 nM.
As for `C=CC(=O)NC1CC(Oc2cc3c(Nc4ccc(F)c(C#N)c4)ncnc3cc2OC)C1` (stereo not drawn) [Compound 87, N-(3-((4-((3-cyano-4-fluorophenyl)amino)-7-methoxyquinazolin-6-yl)oxy)cyclobutyl)acrylamide], the EC50 was over 1000 nM on Ba/F3 stable cells [1]; over 1000 nM at Ba/F3 stable cells [2]; over 1000 nM on Ba/F3 stable cells [3]; 200 to 1000 nM on Ba/F3 stable cells [4]; over 1000 nM on Ba/F3 stable cells [5]; over 1000 nM on Ba/F3 stable cells [6].
For `C=CC(=O)NC1CC(Oc2cc3c(Nc4cccc5c4CCC5)ncnc3cc2OC)C1` (stereo not drawn) [Compound 88, N-(3-((4-((2,3-dihydro-1H-inden-4-yl)amino)-7-methoxyquinazolin-6-yl)oxy)cyclobutyl)acrylamide], the EC50 was over 1000 nM on Ba/F3 stable cells [1]; over 1000 nM at Ba/F3 stable cells [2]; over 1000 nM on Ba/F3 stable cells [3]; 200 to 1000 nM on Ba/F3 stable cells [4]; over 1000 nM on Ba/F3 stable cells [5]; over 1000 nM on Ba/F3 stable cells [6].
On to `C=CC(=O)NC1CC(Oc2cc3c(Nc4cccc5c4CCCC5)ncnc3cc2OC)C1` (stereo not drawn) [Compound 89, N-(3-((7-methoxy-4-((5,6,7,8-tetrahydronaphthalen-1-yl)amino)quinazolin-6-yl)oxy)cyclobutyl)acrylamide], for which the EC50 on Ba/F3 stable cells [1] is over 1000 nM; at Ba/F3 stable cells [2] it was over 1000 nM; at Ba/F3 stable cells [3] it was over 1000 nM; on Ba/F3 stable cells [4], 200 to 1000 nM; at Ba/F3 stable cells [5] it was over 1000 nM; on Ba/F3 stable cells [6] it was over 1000 nM.
For the compound `C=CC(=O)N[C@H]1CC[C@@H](Oc2cc3c(Nc4ccc(Cl)c(Cl)c4F)ncnc3cc2OC)CC1` [Compound 90, N-((1s,4s)-4-((4-((3,4-dichloro-2-fluorophenyl)amino)-7-methoxyquinazolin-6-yl)oxy)cyclohexyl)acrylamide], the EC50 on Ba/F3 stable cells [1] was over 1000 nM; at Ba/F3 stable cells [2] it was over 1000 nM; on Ba/F3 stable cells [3], 200 to 1000 nM; at Ba/F3 stable cells [4], at most 200 nM; on Ba/F3 stable cells [5], at most 200 nM; at Ba/F3 stable cells [6], over 1000 nM.
For `C=CC(=O)N[C@H]1CC[C@H](Oc2cc3c(Nc4ccc(Cl)c(Cl)c4F)ncnc3cc2OC)CC1` [Compound 91, N-((1r,4r)-4-((4-((3,4-dichloro-2-fluorophenyl)amino)-7-methoxyquinazolin-6-yl)oxy)cyclohexyl)acrylamide], the EC50 at Ba/F3 stable cells [1] is over 1000 nM; at Ba/F3 stable cells [2] it was 200 to 1000 nM; at Ba/F3 stable cells [3] it was 200 to 1000 nM; at Ba/F3 stable cells [4] it was at most 200 nM; at Ba/F3 stable cells [5], 200 to 1000 nM; on Ba/F3 stable cells [6] it was 200 to 1000 nM.
For the compound `C=CC(=O)NC1CC(Nc2cc3c(Nc4ccc(Cl)c(Cl)c4F)ncnc3cc2OC)C1` (stereo not drawn) [Compound 92, N-(3-((4-((3,4-dichloro-2-fluorophenyl)amino)-7-methoxyquinazolin-6-yl)amino)cyclobutyl)acrylamide], the EC50 at Ba/F3 stable cells [1] is 200 to 1000 nM; on Ba/F3 stable cells [2] it was 200 to 1000 nM; at Ba/F3 stable cells [3] it was at most 200 nM; at Ba/F3 stable cells [4], at most 200 nM; at Ba/F3 stable cells [5] it was at most 200 nM; at Ba/F3 stable cells [6], at most 200 nM.
As for `C=CC(=O)N1CCC(Oc2cc3c(C(=O)NCc4ccc(F)cc4)ncnc3cc2OC)CC1` [Compound 94, 6-((1-acryloylpiperidin-4-yl)oxy)-N-(4-fluorobenzyl)-7-methoxyquinazoline-4-carboxamide], the EC50 on Ba/F3 stable cells [1] is over 1000 nM; on Ba/F3 stable cells [2] it was over 1000 nM; on Ba/F3 stable cells [3], over 1000 nM; at Ba/F3 stable cells [4], at most 200 nM; on Ba/F3 stable cells [5] it was over 1000 nM; on Ba/F3 stable cells [6] it was over 1000 nM.
Regarding `C=CC(=O)N1CCC(Oc2cc3c(C(=O)N[C@H](C)c4ccc(F)cc4)ncnc3cc2OC)CC1` [Compound 95, (R)-6-((1-acryloylpiperidin-4-yl)oxy)-N-(1-(4-fluorophenyl)ethyl)-7-methoxyquinazoline-4-carboxamide], the EC50 on Ba/F3 stable cells [1], at Ba/F3 stable cells [2], at Ba/F3 stable cells [3], on Ba/F3 stable cells [4], on Ba/F3 stable cells [5] and on Ba/F3 stable cells [6] was over 1000 nM throughout.
Consider `C=CC(=O)NC1CC(Oc2cc3c(C(=O)NCc4ccc(F)cc4)ncnc3cc2OC)C1` (stereo not drawn) [Compound 96, 6-(3-acrylamidocyclobutoxy)-N-(4-fluorobenzyl)-7-methoxyquinazoline-4-carboxamide], for which the EC50 at Ba/F3 stable cells [1], on Ba/F3 stable cells [2], on Ba/F3 stable cells [3], at Ba/F3 stable cells [4], on Ba/F3 stable cells [5] and at Ba/F3 stable cells [6] was over 1000 nM in each case.
Take `C=CC(=O)N[C@H]1C[C@@H](Oc2cc3c(C(=O)N[C@H](C)c4ccc(F)cc4)ncnc3cc2OC)C1` [Compound 97, 6-((1s,3S)-3-acrylamidocyclobutoxy)-N-((R)-1-(4-fluorophenyl)ethyl)-7-methoxyquinazoline-4-carboxamide]: the EC50 at Ba/F3 stable cells [1], at Ba/F3 stable cells [2], on Ba/F3 stable cells [3], at Ba/F3 stable cells [4], at Ba/F3 stable cells [5] and on Ba/F3 stable cells [6] was over 1000 nM each time.
Regarding `C=CC(=O)N1CCC(Oc2cc3c(NC(=O)c4ccc(F)cc4)ncnc3cc2OC)CC1` [Compound 98, N-(6-((1-acryloylpiperidin-4-yl)oxy)-7-methoxyquinazolin-4-yl)-4-fluorobenzamide], the EC50 at Ba/F3 stable cells [1] was over 1000 nM; on Ba/F3 stable cells [2] it was over 1000 nM; at Ba/F3 stable cells [3], over 1000 nM; at Ba/F3 stable cells [4], 200 to 1000 nM; on Ba/F3 stable cells [5], over 1000 nM; at Ba/F3 stable cells [6], over 1000 nM.
As for `C=CC(=O)N[C@H]1C[C@@H](Oc2cc3c(Nc4ccc(Cl)c(Cl)c4F)ncnc3cc2O[C@H]2CCOC2)C1` [Compound 99, N-((1R,3s)-3-((4-((3,4-dichloro-2-fluorophenyl)amino)-7-(((S)-tetrahydrofuran-3-yl)oxy)quinazolin-6-yl)oxy)cyclobutyl)acrylamide], the EC50 is at most 200 nM at Ba/F3 stable cells [1]; 200 to 1000 nM at Ba/F3 stable cells [2]; at most 200 nM on Ba/F3 stable cells [3]; at most 200 nM on Ba/F3 stable cells [4]; at most 200 nM on Ba/F3 stable cells [5]; at most 200 nM on Ba/F3 stable cells [6].
As for `C=CC(=O)N[C@H]1C[C@@H](Oc2cc3c(Nc4ccc(Cl)c(Cl)c4F)ncnc3cc2OCCO)C1` [Compound 100, N-((1s,3s)-3-((4-((3,4-dichloro-2-fluorophenyl)amino)-7-(2-hydroxyethoxy)quinazolin-6-yl)oxy)cyclobutyl)acrylamide], the EC50 on Ba/F3 stable cells [1] was 200 to 1000 nM; at Ba/F3 stable cells [2] it was 200 to 1000 nM; on Ba/F3 stable cells [3] it was 200 to 1000 nM; at Ba/F3 stable cells [4], at most 200 nM; on Ba/F3 stable cells [5], at most 200 nM; on Ba/F3 stable cells [6], 200 to 1000 nM.
With `C=CC(=O)N[C@H]1C[C@@H](Oc2cc3c(Nc4ccc(Cl)c(Cl)c4F)ncnc3cc2OCCN(C)C)C1` [Compound 101, N-((1s,3s)-3-((4-((3,4-dichloro-2-fluorophenyl)amino)-7-(2-(dimethylamino)ethoxy)quinazolin-6-yl)oxy)cyclobutyl)acrylamide], the EC50 on Ba/F3 stable cells [1] was over 1000 nM; at Ba/F3 stable cells [2] it was over 1000 nM; at Ba/F3 stable cells [3], over 1000 nM; on Ba/F3 stable cells [4] it was at most 200 nM; at Ba/F3 stable cells [5], 200 to 1000 nM; at Ba/F3 stable cells [6], over 1000 nM.
Take `[2H]C([2H])([2H])Oc1cc2ncnc(Nc3ccc(Cl)c(Cl)c3F)c2cc1O[C@H]1C[C@@H](NC(=O)C=C)C1` [Compound 102, N-((1s,3s)-3-((4-((3,4-dichloro-2-fluorophenyl)amino)-7-(methoxy-d3)quinazolin-6-yl)oxy)cyclobutyl)acrylamide]: the EC50 at Ba/F3 stable cells [1], on Ba/F3 stable cells [2], at Ba/F3 stable cells [3], at Ba/F3 stable cells [4], at Ba/F3 stable cells [5] and at Ba/F3 stable cells [6] was at most 200 nM in each case.
In the case of `C=CC(=O)N[C@H]1C[C@@H](Oc2cc3c(Nc4ccc(Cl)c(Cl)c4F)ncnc3cc2NC)C1` [Compound 103, N-((1s,3s)-3-((4-((3,4-dichloro-2-fluorophenyl)amino)-7-(methylamino)quinazolin-6-yl)oxy)cyclobutyl)acrylamide], the concentration for a half-maximal effect (EC50) on Ba/F3 stable cells [1], at Ba/F3 stable cells [2], on Ba/F3 stable cells [3], at Ba/F3 stable cells [4], at Ba/F3 stable cells [5] and on Ba/F3 stable cells [6] was at most 200 nM throughout.
